In EP1377579B1 (Aventis Pharmaceuticals Inc., priority 2000, dated 2002):
Structures can show the parent of a compound that is named as a salt.

Columns and labels:
[1] = tested on: PC-3; assay: In vitro proliferation assay (MTT), PC-3; format: cell-based, human; conditions: Homo sapiens, PC-3, MTT assay; value (SD, n) where given; read-out: PC-3 Prostate (IC50 µM)
In short: (§1)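 Cells plated at 1000 to 2500 cells/well, allowed to attach overnight, then exposed to compounds for 3 days. Viable cells estimated by MTT dye, solubilized in DMSO, absorbance at 570 nm; IC50 taken from raw data.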

[2] = target: cdk4/cyclin D1 (Homo sapiens, UniProt P11802); assay: Cyclin-dependent kinase assay, cdk4/cyclin D1; format: biochemical; conditions: cyclin D1/cdk4; GST-pRb substrate, 10 µM ATP
Chain of cdk4/cyclin D1 (P11802 whole entry): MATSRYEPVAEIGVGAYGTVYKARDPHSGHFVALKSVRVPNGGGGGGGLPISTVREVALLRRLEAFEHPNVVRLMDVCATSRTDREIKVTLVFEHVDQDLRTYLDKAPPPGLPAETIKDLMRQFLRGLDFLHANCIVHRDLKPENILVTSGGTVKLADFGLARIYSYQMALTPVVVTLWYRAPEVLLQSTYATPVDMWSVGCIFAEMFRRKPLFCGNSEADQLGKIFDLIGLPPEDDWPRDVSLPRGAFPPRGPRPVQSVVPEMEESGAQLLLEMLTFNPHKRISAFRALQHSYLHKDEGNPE
Chain of cdk4/cyclin D1 (P24385 whole entry partner): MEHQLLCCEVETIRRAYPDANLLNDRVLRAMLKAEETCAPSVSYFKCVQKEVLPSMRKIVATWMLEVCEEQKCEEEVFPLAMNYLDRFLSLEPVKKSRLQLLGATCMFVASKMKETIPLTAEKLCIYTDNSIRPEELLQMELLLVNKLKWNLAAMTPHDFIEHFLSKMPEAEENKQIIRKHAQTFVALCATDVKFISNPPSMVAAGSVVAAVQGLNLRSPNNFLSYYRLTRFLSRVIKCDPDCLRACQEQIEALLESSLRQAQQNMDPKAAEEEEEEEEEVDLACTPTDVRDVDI

[3] = target: cdk2/cyclin E (Homo sapiens, UniProt P24941); assay: Cyclin-dependent kinase assay, cdk2/cyclin E; conditions: CDK2 IC50, nM, GST-pRb substrate, 10 µM ATP
Experimental: The insect cell (Sf9) expression is optimized for each of the CDK/cyclin pairs according to the manufacturer's protocols (Life Technologies).
The viruses are added to the cells and the culture is incubated at 27°C for the desired time. The cells are harvested by centrifugation at 3000 rpm for 10 minutes. The cells are snap frozen on dry ice and stored at - 80°C.
Cell extracts are made following a standard procedure. The cell pellet is resuspended in lysis buffer (50 mM HEPES, pH 8.0, 10 mM MgCl2, 1 mM DTT, 2.5 mM EGTA, 1 mM EDTA, 10 mM β-glycerophosphate, 1 mM sodium vanadate, 1 mM sodium fluoride, 1 x Protease inhibitor cocktail). The cells are lysed using the microfluidizer (Microfluidics) for 20 minutes. Cell debris is removed by centrifugation at 100,000 x g. The cell extracts are aliquoted in 1 ml aliquots, frozen on dry ice, and stored at -80°C.
The kinase reactions are performed following a standard procedure. The enzyme and inhibitor are diluted in kinase buffer (50 mM HEPES, pH 8.0, 10 mM MgCl2, 2.5 mM EGTA, 10 mM β-glycerophosphate, 1 mM sodium vanadate, 1 mM sodium fluoride, and 1 mM DTT) and pre-incubated for 30 minutes. The cdk2 and cdk4 enzyme activities are assayed using 500 ng of the GST-pRb substrate (see description below) in the presence of 10 µM cold ATP and 1 µCi of [γ-^33P] ATP for 30 minutes at room temperature. […] The reactions are terminated by the addition of 50 µL of 10 mM cold ATP to stop the reactions. The reactions are transferred to a pre-soaked 96-well multi-screen plate containing 30 µL of 100% TCA per well. After incubation for one hour at room temperature, the plates are washed twice with 200 µl of 20% TCA, followed by 200 µl of 10% TCA and finally with 200 µl of 5% TCA. After drying the plates at room temperature, the filter plates are placed in adapter plates (Packard) and 40 µl of Microscint-O® (Packard) is added to each well.

[4] = tested on: MDA-MB-435; assay: In vitro proliferation assay (MTT), MDA-MB-435; format: cell-based, human; conditions: Homo sapiens, MDA-MB-435, MTT assay; value (SD, n) where given; read-out: MB-435 Breast (IC50 µM)
In short: as §1

[5] = target: cdk1/cyclin B (Homo sapiens, UniProt P06493); assay: Cyclin-dependent kinase assay, cdk1/cyclin B; conditions: CDK1 IC50, nM, Histone H1, 10 µM ATP
Chain of cdk1/cyclin B (P06493 whole entry): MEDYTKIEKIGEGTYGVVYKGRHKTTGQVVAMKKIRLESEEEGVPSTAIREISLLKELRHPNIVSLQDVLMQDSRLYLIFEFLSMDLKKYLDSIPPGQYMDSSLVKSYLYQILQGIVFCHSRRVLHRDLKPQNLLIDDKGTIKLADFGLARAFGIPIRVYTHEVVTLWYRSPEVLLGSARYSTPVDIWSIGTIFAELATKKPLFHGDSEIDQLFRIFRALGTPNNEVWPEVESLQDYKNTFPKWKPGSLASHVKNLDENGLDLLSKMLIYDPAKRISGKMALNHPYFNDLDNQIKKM
Chain of cdk1/cyclin B (P14635 whole entry partner): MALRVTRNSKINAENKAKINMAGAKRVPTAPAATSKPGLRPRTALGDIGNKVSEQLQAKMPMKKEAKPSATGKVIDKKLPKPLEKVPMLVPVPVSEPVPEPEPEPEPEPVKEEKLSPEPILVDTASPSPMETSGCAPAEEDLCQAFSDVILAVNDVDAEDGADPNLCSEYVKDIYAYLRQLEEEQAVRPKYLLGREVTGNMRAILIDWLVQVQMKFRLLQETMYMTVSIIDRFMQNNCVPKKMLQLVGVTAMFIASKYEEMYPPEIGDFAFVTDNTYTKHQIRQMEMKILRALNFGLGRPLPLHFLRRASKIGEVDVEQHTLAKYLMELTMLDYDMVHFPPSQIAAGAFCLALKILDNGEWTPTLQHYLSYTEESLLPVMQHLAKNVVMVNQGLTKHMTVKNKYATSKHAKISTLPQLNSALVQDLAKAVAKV

Structure (SMILES): CC(C)n1cnc2c(NC3CCN(C(=O)COc4ccccc4)CC3)nc(N[C@H]3CC[C@H](N)CC3)nc21 [compound 80, trans-1-{4-[2-(4-Amino-cyclohexylamino)-9-isopropyl-9H-purin-6-ylamino]-piperidin-1-yl}-2-phenoxy-ethanone dihydrochloride]
- IC50 [1]: > 50 µM
- IC50 [2]: 8100 nM
- IC50 [3]: 39 nM
- IC50 [4]: > 50 µM
- IC50 [5]: 244 nM

Structure (SMILES): CCOC(=O)N1CCC(Nc2nc(N[C@H]3CC[C@H](N)CC3)nc3c2ncn3C(C)C)CC1 [compound 104, trans-4-[2-(4-Amino-cyclohexylamino)-9-isopropyl-9H-purin-6-ylamino]-piperidine-1-carboxylic acid ethyl ester dihydrochloride]
- IC50 [1]: 1.21 µM
- IC50 [2]: 8000 nM
- IC50 [3]: 731 nM
- IC50 [4]: 2.27 µM
- IC50 [5]: 750 nM

Structure (SMILES): CC(=O)Nc1nc(C)c(S(=O)(=O)N2CCC(Nc3nc(N[C@H]4CC[C@H](N)CC4)nc4c3ncn4C3CCCC3)CC2)s1 [compound 113, trans-N-(5-{4-[2-(4-Amino-cyclohexylamino)-9-cyclopentyl-9H-purin-6-ylamino]-piperidine-1-sulfonyl}-4-methyl-thiazol-2-yl)-acetamide dihydrochloride]
- IC50 [1]: 5.89 µM
- IC50 [2]: 39 nM
- IC50 [3]: 7 nM
- IC50 [4]: 6.54 µM
- IC50 [5]: 18 nM

Structure (SMILES): N[C@H]1CC[C@H](Nc2nc(NC3CCN(S(=O)(=O)c4ccc(Br)cc4)CC3)c3ncn(C4CCCC4)c3n2)CC1 [compound 114, trans-N^2-(4-Amino-cyclohexyl)-9-cyclopentyl-N^6-[1-(4-bromo-benzenesulfonyl)-piperidin-4-yl]-9H-purine-2,6-diamine dihydrochloride]
- IC50 [1]: 0.48 µM
- IC50 [2]: 80 nM
- IC50 [3]: 15 nM
- IC50 [4]: 0.33 µM
- IC50 [5]: 5 nM

Structure (SMILES): CC(=O)Nc1ccc(S(=O)(=O)N2CCC(Nc3nc(N[C@H]4CC[C@H](N)CC4)nc4c3ncn4C3CCCC3)CC2)cc1 [compound 115, trans-N-(4-{4-[2-(4-Amino-cyclohexylamino)-9-cyclopentyl-9H-purin-6-ylamino]-piperidine-1-sulfonyl}-phenyl)-acetamide dihydrochloride]
- IC50 [1]: 5.1 µM
- IC50 [2]: 14 nM
- IC50 [3]: 5 nM
- IC50 [4]: 4.24 µM
- IC50 [5]: 5 nM

Structure (SMILES): N[C@H]1CC[C@H](Nc2nc(NC3CCN(S(=O)(=O)c4ccc5ccccc5c4)CC3)c3ncn(C4CCCC4)c3n2)CC1 [compound 116, trans-N^2-(4-Amino-cyclohexyl)-9-cyclopentyl-N^6-[1-(naphthalene-2-sulfonyl)-piperidin-4-yl]-9H-purine-2,6-diamine dihydrochloride]
- IC50 [1]: 1.15 µM
- IC50 [2]: 382 nM
- IC50 [3]: 32 nM
- IC50 [4]: 0.64 µM
- IC50 [5]: 18 nM

Structure (SMILES): N[C@H]1CC[C@H](Nc2nc(NC3CCN(S(=O)(=O)/C=C/c4ccccc4)CC3)c3ncn(C4CCCC4)c3n2)CC1 [compound 118, trans-N^2-(4-Amino-cyclohexyl)-9-cyclopentyl-N^6-[1-((E)-2-phenyl-ethenesulfonyl)-piperidin-4-yl]-9H-purine-2,6-diamine dihydrochloride]
- IC50 [1]: 0.38 µM
- IC50 [2]: 38 nM
- IC50 [3]: 38 nM
- IC50 [4]: 0.28 µM
- IC50 [5]: 22 nM

Structure (SMILES): N[C@H]1CC[C@H](Nc2nc(NC3CCN(S(=O)(=O)Cc4ccccc4)CC3)c3ncn(C4CCCC4)c3n2)CC1 [compound 119, trans-N^2-(4-Amino-cyclohexyl)-9-cyclopentyl-N^6-(1-phenylmethanesulfonyl-piperidin-4-yl)-9H-purine-2,6-diamine dihydrochloride]
- IC50 [1]: 0.52 µM
- IC50 [2]: 65 nM
- IC50 [3]: 31 nM
- IC50 [4]: 0.4 µM
- IC50 [5]: 25 nM

Structure (SMILES): N[C@H]1CC[C@H](Nc2nc(NC3CCN(S(=O)(=O)c4c(Cl)cccc4Cl)CC3)c3ncn(C4CCCC4)c3n2)CC1 [compound 121, trans-N^2-(4-Amino-cyclohexyl)-9-cyclopentyl-N^6-[1-(2,6-dichloro-benzenesulfonyl)-piperidin-4-yl]-9H-purine-2,6-diamine dihydrochloride]
- IC50 [1]: 0.82 µM
- IC50 [2]: 83 nM
- IC50 [3]: 50 nM
- IC50 [4]: 0.66 µM
- IC50 [5]: 120 nM

Structure (SMILES): N[C@H]1CC[C@H](Nc2nc(NC3CCN(S(=O)(=O)c4ccc(I)cc4)CC3)c3ncn(C4CCCC4)c3n2)CC1 [compound 122, trans-N^2-(4-Amino-cyclohexyl)-9-cyclopentyl-N^6-[1-(4-iodo-benzenesulfonyl)-piperidin-4-yl]-9H-purine-2,6-diamine dihydrochloride]
- IC50 [1]: 0.65 µM
- IC50 [2]: 590 nM
- IC50 [3]: 38 nM
- IC50 [4]: 0.48 µM
- IC50 [5]: 10 nM

Structure (SMILES): Cc1ccc(S(=O)(=O)N2CCC(Nc3nc(N[C@H]4CC[C@H](N)CC4)nc4c3ncn4C3CCCC3)CC2)cc1 [compound 124, trans-N^2-(4-Amino-cyclohexyl)-9-cyclopentyl-N^6-[1-(toluene-4-sulfonyl)-piperidin-4-yl]-9H-purine-2,6-diamine dihydrochloride]
- IC50 [1]: 0.56 µM
- IC50 [2]: 77 nM
- IC50 [3]: 26 nM
- IC50 [4]: 0.44 µM
- IC50 [5]: 10 nM

Structure (SMILES): CC(C)S(=O)(=O)N1CCC(Nc2nc(N[C@H]3CC[C@H](N)CC3)nc3c2ncn3C2CCCC2)CC1 [compound 125, trans-N^2-(4-Amino-cyclohexyl)-9-cyclopentyl-N^6-[1-(propane-2-sulfonyl)-piperidin-4-yl]-9H-purine-2,6-diamine dihydrochloride]
- IC50 [1]: 1.29 µM
- IC50 [2]: 62 nM
- IC50 [3]: 38 nM
- IC50 [4]: 1.03 µM
- IC50 [5]: 180 nM

Structure (SMILES): N[C@H]1CC[C@H](Nc2nc(NC3CCN(S(=O)(=O)c4ccc(C(=O)O)cc4)CC3)c3ncn(C4CCCC4)c3n2)CC1 [compound 126, trans-4-{4-[2-(4-Amino-cyclohexylamino)-9-cyclopentyl-9H-purin-6-ylamino]-piperidine-1-sulfonyl}-benzoic acid dihydrochloride]
- IC50 [1]: 16.8 µM
- IC50 [2]: 55 nM
- IC50 [3]: 6 nM
- IC50 [4]: 19.7 µM
- IC50 [5]: 20 nM

Structure (SMILES): N[C@H]1CC[C@H](Nc2nc(NC3CCN(S(=O)(=O)c4cccc([N+](=O)[O-])c4)CC3)c3ncn(C4CCCC4)c3n2)CC1 [compound 127, trans-N^2-(4-Amino-cyclohexyl)-9-cyclopentyl-N^6-[1-(3-nitro-benzenesulfonyl)-piperidin-4-yl]-9H-purine-2,6-diamine dihydrochloride]
- IC50 [1]: 0.62 µM
- IC50 [2]: 48 nM
- IC50 [3]: 17 nM
- IC50 [4]: 0.61 µM
- IC50 [5]: 14 nM

Structure (SMILES): CCCCS(=O)(=O)N1CCC(Nc2nc(N[C@H]3CC[C@H](N)CC3)nc3c2ncn3C2CCCC2)CC1 [compound 129, trans-N^2-(4-Amino-cyclohexyl)-N^6-[1-(butane-1-sulfonyl)-piperidin-4-yl]-9-cyclopentyl-9H-purine-2,6-diamine dihydrochloride]
- IC50 [1]: 0.64 µM
- IC50 [2]: 60 nM
- IC50 [3]: 9 nM
- IC50 [4]: 0.46 µM
- IC50 [5]: 60 nM

Structure (SMILES): CC(C)(C)c1ccc(S(=O)(=O)N2CCC(Nc3nc(N[C@H]4CC[C@H](N)CC4)nc4c3ncn4C3CCCC3)CC2)cc1 [compound 130, trans-N^2-(4-Amino-cyclohexyl)-N^6-[1-(4-tert-butyl-benzenesulfonyl)-piperidin-4-yl]-9-cyclopentyl-9H-purine-2,6-diamine dihydrochloride]
- IC50 [1]: 2.29 µM
- IC50 [2]: 159 nM
- IC50 [3]: 53 nM
- IC50 [4]: 0.8 µM
- IC50 [5]: 8 nM

Structure (SMILES): CCCS(=O)(=O)N1CCC(Nc2nc(N[C@H]3CC[C@H](N)CC3)nc3c2ncn3C2CCCC2)CC1 [compound 131, trans-N^2-(4-Amino-cyclohexyl)-N^6-[1-(propane-1-sulfonyl)-piperidin-4-yl]-9-cyclopentyl-9H-purine-2,6-diamine dihydrochloride]
- IC50 [1]: 1.48 µM
- IC50 [2]: 70 nM
- IC50 [3]: 17 nM
- IC50 [4]: 0.89 µM
- IC50 [5]: 100 nM

Structure (SMILES): N[C@H]1CC[C@H](Nc2nc(NC3CCN(S(=O)(=O)CC(F)(F)F)CC3)c3ncn(C4CCCC4)c3n2)CC1 [compound 133, trans-N^2-(4-Amino-cyclohexyl)-9-cyclopentyl-N^6-[1-(2,2,2-trifluoro-ethanesulfonyl)-piperidin-4-yl]-9H-purine-2,6-diamine dihydrochloride]
- IC50 [1]: 8.97 µM
- IC50 [2]: 85 nM
- IC50 [3]: 55 nM
- IC50 [4]: 9.1 µM
- IC50 [5]: 200 nM

Structure (SMILES): N[C@H]1CC[C@H](Nc2nc(NC3CCN(S(=O)(=O)c4ccc(OC(F)(F)F)cc4)CC3)c3ncn(C4CCCC4)c3n2)CC1 [compound 134, trans-N^2-(4-Amino-cyclohexyl)-9-cyclopentyl-N^6-[1-(4-trifluoromethoxy-benzenesulfonyl)-piperidin-4-yl]-9H-purine-2,6-diamine dihydrochloride]
- IC50 [1]: 0.76 µM
- IC50 [2]: 84 nM
- IC50 [3]: 35 nM
- IC50 [4]: 0.46 µM
- IC50 [5]: 200 nM

Structure (SMILES): N[C@H]1CC[C@H](Nc2nc(NC3CCN(S(=O)(=O)c4cccc(C(=O)O)c4)CC3)c3ncn(C4CCCC4)c3n2)CC1 [compound 135, dihydrochloride]
- IC50 [1]: 4.05 µM
- IC50 [2]: 62 nM
- IC50 [3]: 4 nM
- IC50 [4]: 3.38 µM
- IC50 [5]: 80 nM

Structure (SMILES): N[C@H]1CC[C@H](Nc2nc(NC3CCN(S(=O)(=O)c4ccccc4Br)CC3)c3ncn(C4CCCC4)c3n2)CC1 [compound 136, trans-N^2-(4-Amino-cyclohexyl)-9-cyclopentyl-N^6-[1-(2-bromo-benzenesulfonyl)-piperidin-4-yl]-9H-purine-2,6-diamine dihydrochloride]
- IC50 [1]: 0.68 µM
- IC50 [2]: 10 nM
- IC50 [3]: 37 nM
- IC50 [4]: 0.44 µM
- IC50 [5]: 50 nM
